Assays:
[1] = system: U-87 (human primary glioblastoma) cells; test: Short term cytotoxicity, MTT assay; assay type: cell-based; details: 1 h treatment then 72 h culture, read-out: cytotoxicity expressed in IC50, U-87
Method: (§1) For the short term cytotoxicity studies the A-431 (human squamous carcinoma) and U-87 (human primary glioblastoma) cells were cultured in RPMI-1640 medium supplemented with 10% FCS (fetal calf serum, Sigma Ltd.), 2 mM L-glutamine, and […] gentamicin. Cell cultures were maintained at 37° C. in a humidified atmosphere with 5% CO2. The cells were grown to confluency and were distributed into 96-well plate with initial cell number of 5.0×10^3 per well. After 24 h incubation at 37° C., the cells were treated with the compounds in 200 μL final volume containing 1.0 v/v % DMSO. The cells were incubated with the compounds at 10^−4-10^2 μM concentration range for 1 h. Control cells were treated with serum free medium (RPMI-1640) only or with DMSO (c=1.0 v/v %) at 37° C. for 1 h. After incubation the cells were washed twice with serum free (RPMI-1640) medium. To determine the in vitro cytostatic effect, the cells were cultured for a further 72 h in 10% serum containing medium. MTT-solution ([…], 2 mg/mL, final concentration: 0.37 mg/mL) was added to each well. The respiratory chain [26, 27] and other electron transport systems reduce MTT and thereby form non-water-soluble violet formazane crystals within the cell. […] After 4 h of incubation the cells were centrifuged for 5 min (900 g) and the supernatant was removed. The obtained formazane crystals were dissolved in DMSO ([…]) and optical density (OD) of the samples was measured at λ=540 and 620 nm, respectively, using ELISA Reader (iEMS Reader, Labsystems, Finland). OD620 values were subtracted from OD540 values. The percent of cytostasis was calculated by using the following equation: Cytostatic effect (%)=[1−(ODtreated/ODcontrol)]×100 Values ODtreated and ODcontrol correspond to the optical densities of the treated and the control cells, respectively. In each case two independent experiments were carried out with 4 parallel measurements. […] The curves were defined using Microcal™ Origin1 (version 7.5) software: cytostasis was plotted as a function of concentration, fitted to a sigmoidal curve, and based on this curve, the half maximal inhibitory concentration (IC50) value was determined.

[2] = system: A-431 (human squamous carcinoma) cells; test: Short term cytotoxicity, MTT assay; assay type: cell-based; details: 1 h treatment then 72 h culture, read-out: cytotoxicity expressed in IC50, A-431
Method: as §1

O=C1C2=C(CCN(Cc3cccc(F)c3)C2)N2CCN=C2N1Cc1ccc(C(F)(F)F)cc1 [I/3, reference compound]
IC50 [1]: 4.16 µM | IC50 [2]: < 0.2 µM

From patent publication US20230295162A1 (EÖTVÖS LORÁND TUDOMÁNYEGYETEM, priority 2020, published 2023)
